# Measured values from patent US20070249988A1, “Electrotransport Delivery of Nesiritide” (ALZA CORPORATION, priority 2006, published 2007).
# Columns and labels:
# [1] = Circular dichroic spectrometry (CD), secondary structure; format: physicochemical
# Description: Circular dichroic spectrometry was used to assess the amount of secondary structure present in nesiritide under aqueous, low ionic strength conditions. In addition, changes in the value calculated for mean residual ellipticity were analyzed to determine if secondary structure, specifically α-helix, could be induced upon the addition of 2,2,2-trifluoroethanol (TFE) or high salt, or both, to nesiritide in aqueous solution at 0.8 mg/mL.
# Several methods have been used to estimate the secondary structural components of proteins from the CD spectra. The techniques have been applied to peptide spectra with varying degrees of success (Sreerama, N., Woody, R. W. A Self-Consistent method for the Analysis of Protein Secondary Structure from Circular Dichroism, Analytical Biochemistry, 1993; 209 32-44; Yang, J. T. et al. Separation and Analysis of Peptides and Proteins, Methods Enzymology, 1986; 130 208-269). Computer programs were used to analyze the data from CD scans. Mean residue ellipticity ([θ]nm) was computed at each wavelength and compared to reference spectra to estimate the relative amounts of helix, sheet, turn and aperiodic secondary structure.
# The secondary structure assumed by nesiritide in an aqueous environment and induced by the addition of TFE, NaCl or both, were analyzed by CD. The peptide was studied at both 32 and 20° C. The peptide was studied at two concentrations: 0.2 mg/mL (20° C.) to allow data to be obtained at wavelengths below 200 nm, and at 0.8 mg/mL (32° C.) to increase any tendency toward self association. The CD ellipticity values at 222 nm have been interpreted to best reflect the amount of α-helix. The fully helical peptide or protein would have [θ]222nm of −32,000° cm^2, while the peptide lacking secondary structure would have a value of ˜2400° cm^2.
# The use of the lower concentration, with a 2 mm path, allowed data to be collected down to 197 nm. The difference spectrum (FIG. 1B) was resolved into component gaussian bands (Holladay, L. A., Savage, C. R., Cohen, S., Puett, D. Biochemistry, 1976; 15 2624-2633; Holladay, L. A., Hammonds, R. G., Jr., Puett, D. Biochemistry, 1974; 13 1653-1661) in order to estimate the amount of α-helix and β-sheet formed. Estimates of secondary structure were made by computing the ratio of the observed rotational strength (R cgs) with those for poly-L lysine in either the α-helical or β-sheet form. The table below gives the parameters of the resolved gaussians, and the estimates of secondary structure. Nesiritide in 40% TFE probably exists as a mixture of conformers.
# [2] = In vitro electrotransport of nesiritide across heat-separated human epidermis (ET cells, solution donor); format: in vitro ADME
# Description: Nesiritide was screened in vitro for its electrotransport (ET) properties with heat-separated human epidermis/stratum corneum (skin).
# In vitro electrotransport of nesiritide across heat-separated human epidermis/stratum corneum was conducted using anodic drive with ET cells in three separate sets of experiments, using human epidermis from three sources under the conditions set forth in the table below.
# The pH of donor solutions was monitored before and after the experiments. The amount of passive transport was determined in fully assembled ET cells, incubated at 32° C. for 1 hour, with subsequent analysis of the receptor solution by RP-HPLC. […] The applied constant current was 100 μA/cm^2. The receptor solution was removed for analysis and replenished at 2 hour intervals during the first eight hours of testing, and then after 24 hours and 26 hours. The voltage drop across each cell was monitored at intervals throughout the experiment. Additionally, after the completion of transport studies, the solutions from some donor compartments were removed and analyzed either for evidence of peptide degradation or for pH changes.
# When comparing data obtained using different conditions during ET Flux, it is thought to be more useful to compare the median values for each case (Holladay, L. A. 1995; personal communications). The use of the median as a figure of merit for ET flux data decreases the impact of both measurement and recovery problems for cells with low transport values. It also minimizes the impact of data from ECs with higher values, which may represent skin that was partially leaking. In order to compare the values of the median from different studies, it is necessary to have an estimate of the confidence interval for each median. If the values for the medians are different, but the confidence intervals overlap, then the results are not truly distinguished. For this work with nesiritide, a Bootstrap method (Diciccio, T. J., Romano, J. P. A Review of Bootstrap Confidence Intervals, J. R. Statist Soc B, 1988; 50 338-354; Efron, B., Tibshirani, R. Bootstrap Methods for Standard errors, Confidence Intervals, and Other Measures of Statistical Accuracy, Statistical Science, 1986; 1 54-77) was used to determine 95% and 67% confidence intervals for the data sets compared. The method estimates the intervals using considerable amounts of computation; 32,000 trials of the algorithm were used for these analyses.
# [3] = In vitro electrotransport of nesiritide using hydrogel reservoirs; format: in vitro ADME; conditions: heat separated human epidermis
# Description: Suitable nesiritide flux rates can be achieved by selecting appropriate electrotransport conditions. […] The data shown in the figure were obtained using the transdermal delivery of nesiritide with a silver donor electrode at the anode and a silver chloride counter electrode at the cathode. […] The tests were performed on heat separated human epidermis.
# In vitro electrotransport flux experiments were conducted using either synthetic polymeric Nulepore membranes or heat separated human cadaver epidermis. Custom-built horizontal diffusion cells were used for all in vitro skin flux experiments. Silver and silver chloride electrodes were used to apply current across the cell. Nesiritide hydrogels were placed between the silver anode and human heat-separated epidermis. In addition, a PVOH hydrogel containing a polymeric chloride source was placed between the silver anode and the drug hydrogel. A 1/10 dilution of Dulbecco's phosphate buffered saline (0.015 M NaCl) served as the receptor solution, which was continuously pumped through the receptor compartment. […]
# The receptor samples were analyzed for nesiritide using a HPLC assay. In addition, as show in FIGS. 6B and 7B, formulations were also extracted for nesiritide and analyzed via a HPLC assay after use in a flux experiment.
# [4] = 40% TFE difference spectrum, 0.2 mg/mL, 20° C., pH 7, 10 mM ionic cacodylate, 2 mm path
# [5] = 8 hour delivery, study a & c, fresh skin, combine 1 mM & 3 mM, 100 μA/cm^2
# [6] = 8 hour delivery, study a & c, fresh skin, donor 1 mM, 100 μA/cm^2
# [7] = 8 hour delivery, study b, frozen skin, donor 1 mM, 100 μA/cm^2
# [8] = 8 hour delivery, study b, frozen skin, donor 3 mM, 100 μA/cm^2
# [9] = 8 hour delivery, study c, fresh skin, donor 3 mM, 100 μA/cm^2
compound,measurement,setting,value
"CC[C@H](C)[C@@H]1NC(=O)[C@H](CCCNC(=N)N)NC(=O)[C@H](CC(=O)O)NC(=O)[C@H](CCSC)NC(=O)[C@H](CCCCN)NC(=O)[C@H](CCCNC(=N)N)NC(=O)CNC(=O)[C@H](Cc2ccccc2)NC(=O)[C@@H](NC(=O)CNC(=O)[C@H](CO)NC(=O)CNC(=O)[C@H](CCC(N)=O)NC(=O)[C@@H](NC(=O)[C@H](CCSC)NC(=O)[C@H](CCCCN)NC(=O)[C@@H]2CCCN2C(=O)[C@@H](N)CO)C(C)C)CSSC[C@@H](C(=O)N[C@@H](CCCCN)C(=O)N[C@H](C(=O)N[C@@H](CC(C)C)C(=O)N[C@@H](CCCNC(=N)N)C(=O)N[C@@H](CCCNC(=N)N)C(=O)N[C@@H](Cc2c[nH]cn2)C(=O)O)C(C)C)NC(=O)CNC(=O)[C@H](CC(C)C)NC(=O)CNC(=O)[C@H](CO)NC(=O)[C@H](CO)NC(=O)[C@H](CO)NC(=O)[C@H](CO)NC1=O [Nesiritide, nesiritide]",[θ]222nm mean residue ellipticity,"[1]; 0.8 mg/mL (1 mm path), pH 5.5 unbuffered, in water",−1984 deg cm^2 dmol^−1
same,[θ]222nm mean residue ellipticity,"[1]; 32° C., 40% or 80% TFE or 1.8 M NaCl",~3200 ° cm^2 dmol^−1
same,"% Structure Estimate, α-Helix n → Π* (222 nm)",[1]; [4],6.4%
same,"% Structure Estimate, α-Helix Π → Π* (208 nm)",[1]; [4],5.0%
same,"% Structure Estimate, β-Sheet n → Π* (215 nm)",[1]; [4],5.1%
same,comprehensive median value for transport through human skin,"[2]; 1 mM and 3 mM donor combined, 95% confidence interval of 1.2-2.1",1.6 μg cm^−2h^−1
same,Mean electrotransport flux,"[2]; 1 mM and 3 mM, study a & c, sampling up to 8 h, fresh skin",4.7 μg cm^−2 h^−1
same,Mean electrotransport flux,"[2]; 1 mM and 3 mM, study b, sampling 8 h–26 h, frozen skin",1.5 μg cm^−2 h^−1
same,Mean electrotransport flux,"[2]; 1 mM and 3 mM, study b, sampling up to 8 h, frozen skin",18.6 μg cm^−2 h^−1
same,Mean electrotransport flux,"[2]; 1 mM and 3 mM, study c, sampling 8 h–26 h, fresh skin",1.3 μg cm^−2 h^−1
same,Mean electrotransport flux,[2]; [5],4.7 μg cm^−2 h^−1
same,Median electrotransport flux,[2]; [5],1.6 μg cm^−2 h^−1
same,Mean electrotransport flux,[2]; [6],3.0 μg cm^−2 h^−1
same,Median electrotransport flux,[2]; [6],1.6 μg cm^−2 h^−1
same,Mean electrotransport flux,[2]; [7],10.7 μg cm^−2 h^−1
same,Median electrotransport flux,[2]; [7],6.3 μg cm^−2 h^−1
same,Mean electrotransport flux,[2]; [8],24.9 μg cm^−2 h^−1
same,Median electrotransport flux,[2]; [8],5.6 μg cm^−2 h^−1
same,Mean electrotransport flux,[2]; [9],8.2 μg cm^−2 h^−1
same,Median electrotransport flux,[2]; [9],2.0 μg cm^−2 h^−1
same,transport with respect to time,[2]; by 24 hours (FIG. 2),approaches zero transport
same,"median values for transport, donor 1 mM versus 3 mM",[2]; comparison of donor 1 mM and 3 mM (FIG. 3),not significantly different
same,Median Transport,"[2]; fresh skin, Mid-time 0",0 μg cm^−2 h^−1
same,Median Transport,"[2]; fresh skin, Mid-time 0.6",4.00 μg cm^−2 h^−1
same,Median Transport,"[2]; fresh skin, Mid-time 2.2",2.01 μg cm^−2 h^−1
same,Median Transport,"[2]; fresh skin, Mid-time 4.2",1.55 μg cm^−2 h^−1
same,Median Transport,"[2]; fresh skin, Mid-time 6.2",1.06 μg cm^−2 h^−1
same,Median Transport,"[2]; fresh skin, Mid-time 16",0.37 μg cm^−2 h^−1
same,Median Transport,"[2]; fresh skin, Mid-time 25",0.80 μg cm^−2 h^−1
same,correlation between magnitude of applied current and steady state flux,[3],linear correlation
same,in vitro transport efficiency,"[3]; silver donor electrode at anode, silver chloride counter electrode at cathode",about 0.14 mg/mAhr
